Test results: patent publication US7271161B2, “Platinum complexes as antitumor agents in combination with biochemical modulation” (Board of Regents, the University of Texas System, priority 2002, dated 2007)
Read-outs that look alike come from different tables or passages of the source.

Experiments:
Human A2780 cell line = experiment: MTT cytotoxicity assay, cisplatin-sensitive ovarian A2780 cells, with or without BSO; type: cell-based; parameters: key to DMF vs. A2780 Control (Without BSO): DMF = IC50 without BSO / IC50 with BSO; settings: for DMF vs. A2780 +10 μM BSO (MTC): IC50 without BSO / IC50 with 10 μM BSO (MTC); for DMF vs. A2780 Control (Without BSO): without BSO (reference)
Source text: (§1) The ovarian A2780 and 2008 cell lines are sensitive to cisplatin, while the corresponding 2780CP and 2008/C13* cell lines were selected for resistance following in vitro exposure to cisplatin. The SKOV-3 cell line was established from a patient who was resistant to cisplatin therapy and is considered a model of cisplatin resistance. The A2780 and 2780CP cells have wild-type p53 function, while SKOV-3 is devoid of p53 function. The p53 status for the 2008 and 2008/C131 cells is presently not known.
(§2) Procedure for Cytotoxic Evaluation. All cell lines are maintained in RPMI 1640 medium supplemented with 10% fetal bovine serum, 50 μg/ml penicillin, 50 μg/ml streptomycin, 100 μg/ml neomycin and 0.3 mg/ml L-glutamine. The ovarian lines also require 2 μg/ml insulin for maximal growth. Cells are grown as monolayers at 37° C. in a humidified atmosphere of 5% CO2:95% air. Cytotoxicity is determined by a standard MTT assay. Briefly, the exponentially-growing cells are trypsinized to dislodge them before use. After diluting the tumor cells to appropriate concentrations (2,000-30,000 cells/ml), 100 μl aliquots of the cell suspensions are added to each well of a 96-well microtiter plate. The cells are allowed to attach overnight, and then exposed for 24 hr to BSO at a concentration that is equal to or less than maximally tolerated concentration (MTC). At 22 hr after addition of BSO, the platinum complex is added, and 2 hr later the cells are washed and reincubated. After another 5 days, when control cells are in an exponential phase of growth, 50 μl of an MTT solution (3 mg/ml) is added to each well. Following a 3-hr incubation, the medium is removed and replaced by 50 μl of 100% DMSO to dissolve MTT formazan crystals. Plates are agitated on a plate shaker for 5 min, and absorbances are measured at 570 nm in a multiwell scanning spectrophotometer.
(§3) IC50 values, defined as the drug concentration (μM) inhibiting cell growth by 50% compared to control wells, are determined by fitting a sigmoidal curve to the data using a computer program. Resistance factor is calculated as a ratio of the IC50 against resistant cell line to the IC50 against parent cell line. The dose modification factor (DMF) is derived from a ratio of IC50 without BSO to that with BSO.

Human 2780CP cell line = experiment: MTT cytotoxicity assay, cisplatin-resistant ovarian 2780CP cells, with or without BSO; type: cell-based; parameters: key to DMF vs. 2780CP Control (Without BSO) / DMF Control / DMF +BSO (MTC): DMF = IC50 without BSO / IC50 with BSO; settings: for DMF vs. 2780CP +10 μM BSO: IC50 without BSO / IC50 with 10 μM BSO; for DMF vs. 2780CP +3 mM BSO (MTC): IC50 without BSO / IC50 with 3 mM BSO (MTC); for DMF vs. 2780CP Control (Without BSO): without BSO (reference); for Resistance Factor vs. 2780CP +10 μM BSO: IC50 2780CP with 10 μM BSO / IC50 A2780 without BSO; for Resistance Factor vs. 2780CP +3 mM BSO (MTC): IC50 2780CP with 3 mM BSO (MTC) / IC50 A2780 without BSO; for Resistance Factor vs. 2780CP Control (Without BSO): IC50 2780CP without BSO / IC50 A2780 without BSO
Source text: as §1, §2, §3

[1] = +10 μM BSO (MTC), 24 hr BSO, read-out: IC50 (μM) vs. A2780 +10 μM BSO (MTC)
[2] = without BSO, 2 hr platinum exposure, MTT after 5 days, read-out: IC50 (μM) vs. A2780 Control (Without BSO)
[3] = +10 μM BSO, read-out: IC50 (μM) vs. 2780CP +10 μM BSO
[4] = +3 mM BSO (MTC), read-out: IC50 (μM) vs. 2780CP +3 mM BSO (MTC)
[5] = without BSO, read-out: IC50 (μM) vs. 2780CP Control (Without BSO)

[Cl][Pt]1([Cl])([Cl])([Cl])[NH][C@@H]2CCCC[C@H]2[NH]1 (racemic) [Complex 13]
IC50 (Human A2780 cell line; [1]): 4.57 µM
DMF vs. A2780 +10 μM BSO (MTC) (Human A2780 cell line): 1.86
DMF vs. A2780 Control (Without BSO) (Human A2780 cell line): 1.00
IC50 (Human A2780 cell line; [2]): 8.48 µM
IC50 (Human 2780CP cell line; [3]): 34.9 µM
IC50 (Human 2780CP cell line; [4]): 23.5 µM
DMF vs. 2780CP +10 μM BSO (Human 2780CP cell line): 1.28
DMF vs. 2780CP +3 mM BSO (MTC) (Human 2780CP cell line): 1.91
DMF vs. 2780CP Control (Without BSO) (Human 2780CP cell line): 1.00
IC50 (Human 2780CP cell line; [5]): 44.8 µM

[NH2][Pt]([NH2])([Cl])[Cl] [Complex 1]
IC50 (Human A2780 cell line; [1]): 4.25 µM
DMF vs. A2780 +10 μM BSO (MTC) (Human A2780 cell line): 1.59
DMF vs. A2780 Control (Without BSO) (Human A2780 cell line): 1.00
IC50 (Human A2780 cell line; [2]): 6.75 µM
IC50 (Human 2780CP cell line; [3]): 82 µM
IC50 (Human 2780CP cell line; [4]): 58.3 µM
DMF vs. 2780CP +10 μM BSO (Human 2780CP cell line): 1.23
DMF vs. 2780CP +3 mM BSO (MTC) (Human 2780CP cell line): 1.73
DMF vs. 2780CP Control (Without BSO) (Human 2780CP cell line): 1.00
IC50 (Human 2780CP cell line; [5]): 101 µM

[Cl][Pt]1([Cl])[NH][C@@H]2CCCC[C@H]2[NH]1 [Complex 2]
IC50 (Human A2780 cell line; [1]): 0.41 µM
DMF vs. A2780 +10 μM BSO (MTC) (Human A2780 cell line): 1.37
DMF vs. A2780 Control (Without BSO) (Human A2780 cell line): 1.00
IC50 (Human A2780 cell line; [2]): 0.56 µM
IC50 (Human 2780CP cell line; [3]): 3.69 µM
IC50 (Human 2780CP cell line; [4]): 2.46 µM
Resistance Factor vs. 2780CP +10 μM BSO (Human 2780CP cell line): 6.59
Resistance Factor vs. 2780CP +3 mM BSO (MTC) (Human 2780CP cell line): 4.39
Resistance Factor vs. 2780CP Control (Without BSO) (Human 2780CP cell line): 8.23
DMF vs. 2780CP +10 μM BSO (Human 2780CP cell line): 1.25
DMF vs. 2780CP +3 mM BSO (MTC) (Human 2780CP cell line): 1.87
DMF vs. 2780CP Control (Without BSO) (Human 2780CP cell line): 1.00
IC50 (Human 2780CP cell line; [5]): 4.61 µM

[NH2][Pt]([Cl])([Cl])[NH]C1CC1 [Complex 3]
IC50 (Human A2780 cell line; [1]): 3.46 µM
DMF vs. A2780 +10 μM BSO (MTC) (Human A2780 cell line): 1.05
DMF vs. A2780 Control (Without BSO) (Human A2780 cell line): 1.00
IC50 (Human A2780 cell line; [2]): 3.64 µM
IC50 (Human 2780CP cell line; [3]): 62.2 µM
IC50 (Human 2780CP cell line; [4]): 48.8 µM
Resistance Factor vs. 2780CP +10 μM BSO (Human 2780CP cell line): 17.1
Resistance Factor vs. 2780CP +3 mM BSO (MTC) (Human 2780CP cell line): 13.4
Resistance Factor vs. 2780CP Control (Without BSO) (Human 2780CP cell line): 17.5
DMF vs. 2780CP +10 μM BSO (Human 2780CP cell line): 1.02
DMF vs. 2780CP +3 mM BSO (MTC) (Human 2780CP cell line): 1.31
DMF vs. 2780CP Control (Without BSO) (Human 2780CP cell line): 1.00
IC50 (Human 2780CP cell line; [5]): 63.7 µM

[NH2][Pt]([Cl])([Cl])[NH]C1CCC1 [Complex 4]
IC50 (Human A2780 cell line; [1]): 0.77 µM
DMF vs. A2780 +10 μM BSO (MTC) (Human A2780 cell line): 1.34
DMF vs. A2780 Control (Without BSO) (Human A2780 cell line): 1.00
IC50 (Human A2780 cell line; [2]): 1.03 µM
IC50 (Human 2780CP cell line; [3]): 16 µM
IC50 (Human 2780CP cell line; [4]): 15.8 µM
Resistance Factor vs. 2780CP +10 μM BSO (Human 2780CP cell line): 15.5
Resistance Factor vs. 2780CP +3 mM BSO (MTC) (Human 2780CP cell line): 15.3
Resistance Factor vs. 2780CP Control (Without BSO) (Human 2780CP cell line): 16.1
DMF vs. 2780CP +10 μM BSO (Human 2780CP cell line): 1.04
DMF vs. 2780CP +3 mM BSO (MTC) (Human 2780CP cell line): 1.05
DMF vs. 2780CP Control (Without BSO) (Human 2780CP cell line): 1.00
IC50 (Human 2780CP cell line; [5]): 16.6 µM

[NH2][Pt]([Cl])([Cl])[NH]C1CCCC1 [Complex 5, Ammine/cyclopentylamine-dichloro-platinum(II)]
IC50 (Human A2780 cell line; [1]): 0.66 µM
DMF vs. A2780 +10 μM BSO (MTC) (Human A2780 cell line): 1.11
DMF vs. A2780 Control (Without BSO) (Human A2780 cell line): 1.00
IC50 (Human A2780 cell line; [2]): 0.73 µM
IC50 (Human 2780CP cell line; [3]): 14.5 µM
IC50 (Human 2780CP cell line; [4]): 9.07 µM
Resistance Factor vs. 2780CP +10 μM BSO (Human 2780CP cell line): 19.9
Resistance Factor vs. 2780CP +3 mM BSO (MTC) (Human 2780CP cell line): 12.4
Resistance Factor vs. 2780CP Control (Without BSO) (Human 2780CP cell line): 20.8
DMF vs. 2780CP +10 μM BSO (Human 2780CP cell line): 1.05
DMF vs. 2780CP +3 mM BSO (MTC) (Human 2780CP cell line): 1.68
DMF vs. 2780CP Control (Without BSO) (Human 2780CP cell line): 1.00
IC50 (Human 2780CP cell line; [5]): 15.2 µM
